Measured values from patent publication US20240018125A1, “CYCLIC ISOTHIOUREA DERIVATIVES AS CXCR4 MODULATORS” (ERMIUM THERAPEUTICS, priority 2020, published 2024).
Where a name gives a salt, the structure may show the parent alone.

How the values were obtained:
[1] = test system: 129S8 mice infected with influenza A virus H3 N2 (X31); experiment: In vivo immunomodulating effect (type 1 IFNs in BALF) in acute influenza inflammation model; design: species or system mouse; conditions: […]; even lower than after ibuprofen
Male C57BL/6 Rj mice = experiment: In vivo evaluation of CXCR4 antagonistic activity by mobilisation of blood cells; design: species or system mouse; conditions: 30 mg/kg single i.p., 2:30 h after injection; shown also for neutrophils, monocytes, lymphocytes, eosinophils
Experimental: Male C57BL/6 Rj mice (7 weeks old) were obtained from Janvier (Le Genest-Saint-Isle, France). Mice were treated by a single intraperitoneal (i.p.) administration at timepoint 0 h. The experimental groups (n=10) were defined as follows: • Mice of group 1 were treated with vehicle only (0.9% NaCl aqueous solution) • Mice of group 2 were treated with AMD3100 (CXCR4 antagonist, Sigma-Aldrich, St Louis, USA) at 20 mg/kg (volume of 10 mL/kg) in 0.9% NaCl aqueous solution • Mice of group 3 were treated with an exemplary compound of formula (I), i.e. Example 60, at 30 mg/kg (volume of 10 mL/kg) in 0.9% NaCl aqueous solution
After 2:30 h, whole blood (at least 200 μl, max 1 mL) was collected in EDTA tubes before sacrifice by an intracardiac puncture under isoflurane anaesthesia and haematology parameters were determined the same day by laser flow cytometry, optical fluorescence and Laminar Flow Impedance™ using the ProCyte Dx hematology analyser (IDEXX, Eau Claire, USA). Differential leukocyte counts were performed to quantify specific immune cell types. Data are reported as total number of cells (K/μL), mean±S.E.M., as well as the statistical significance versus the vehicle control group using unpaired t-tests.

[2] = biological target: T1, Recombinant CXCR4 receptor (Homo sapiens, UniProt P61073); experiment: G.Validation fluorescence assay of CXCR4 receptor conformational changes in lipidic micelles SB2L4 and SB3L1; type: biochemical; conditions: ligand 150 μM over basal state, 5 μM labelled CXCR4, 40 min
T1 construct: host or cells: HEK-293 T cells
Text: G.Validation® assay is […] biotech proprietary fluorescence based assay that assesses conformational changes of a receptor upon activation/inactivation. Recombinant CXCR4 receptor is produced and purified from HEK-293 T cells using […] proprietary mixes. Receptor is then reconstituted in detergent buffers containing lipids mimicking the lipidic composition of dendritic cells (DC) and macrophages (SB2L4 and SB3L1). Thereafter, the receptor is labelled with a non-modifying probe allowing the detection of the activation state and conformational change of the receptor upon addition of a ligand. Indeed, the probe emission spectra maximum wavelength (Amax) shifts according to activation/inactivation of the receptor. Thus, kinetic of activation/inactivation of the receptor can be followed by monitoring Amax shift after addition of a ligand over time. Emission spectra were registered for 40 minutes after addition of each ligand. […] Activation/inactivation kinetics were also followed using an exemplary compound of formula (I), i.e.

[3] = test system: peripheral blood mononuclear cells (PBMCs) from healthy donors; experiment: IFN production by R848-activated PBMCs, quantified with twINNE luciferase reporter cell line; type: cell-based, human; conditions: Homo sapiens, PBMC; read-out: IC50 of anti-inflammatory activity (IFN production by activated PBMCs)
Summary of the method: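 Healthy-donor PBMCs (4.10^6/mL, RPMI/10% FBS) were pre-treated with compound, then stimulated with R848 at 5 μg/mL for 24 h. Supernatants were put on twINNE cells, which carry luciferase under five ISREs, for 24 h, and Bright-Glo luminescence was read. IC50 values came from variable-slope dose-response fits.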

[4] = test system: Female Balb/c mice, pristane-induced lupus; experiment: In vivo pristane-induced lupus mouse model, anti-dsDNA antibody titers in serum by ELISA
Experimental: Female Balb/c mice (6 to 8 weeks, ENVIGO, Indianapolis, USA) received a single i.p. injection with 0.5 mL of pristane (Sigma-Aldrich, St Louis, USA) to induce a lupus-like disease. That same day, once daily treatment was started (10 mL/kg), either with vehicle control (PBS) i.p., with prednisolone (Sigma-Aldrich, St Louis, USA) in PBS p.o. at a dose of 15 mg/kg (positive control), or with an exemplary compound of formula (I), i.e. Example 60, at a dose of either 3 mg/kg, 10 mg/kg or 30 mg/kg in PBS i.p. After 4, 6 and 8 weeks of dosing, sample bleeds for each mouse were collected via the orbital sinus, and immediately cold processed to sera and stored (50 μl) at −80° C. until analysis. In serum, anti-dsDNA antibody titers are determined using ELISA. Optical density was measured at 450 nm (OD450) using a microplate reader. Data are reported as anti-dsDNA Ab titers (OD), mean±S.E.M. as well as the statistical significance versus pristane-induced vehicle treated group using t-tests.

[5] = test system: irrelevant G-protein coupled receptor (GPCR); experiment: G.Validation fluorescence assay on irrelevant GPCR control; type: biochemical; conditions: SDF1α 15 μM, AMD3100 100 μM, Example 60 150 μM; SB3L1

T1 sequence (P61073 whole entry): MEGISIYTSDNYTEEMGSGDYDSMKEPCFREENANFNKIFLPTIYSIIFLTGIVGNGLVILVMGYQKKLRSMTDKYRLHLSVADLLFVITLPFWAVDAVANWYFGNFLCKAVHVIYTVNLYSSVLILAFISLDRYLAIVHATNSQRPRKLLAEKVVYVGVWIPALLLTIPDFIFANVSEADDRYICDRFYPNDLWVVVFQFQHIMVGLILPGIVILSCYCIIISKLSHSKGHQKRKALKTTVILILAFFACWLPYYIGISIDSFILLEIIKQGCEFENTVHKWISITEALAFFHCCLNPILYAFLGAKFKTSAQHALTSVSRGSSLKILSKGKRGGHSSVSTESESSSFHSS

Clc1ccc2c(c1)CN=C(SCCCCN1CCCC1)N2 [Example 60, 6-chloro-2-((4-(pyrrolidin-1-yl)butyl)thio)-1,4-dihydroquinazoline dihydrochloride]
concentration of IFNα in BALF vs vehicle-treated infected mice [1]: significantly decreased
concentration of IFNβ in BALF vs vehicle-treated infected mice [1]: significantly decreased
concentration of IFNλ2/3 in BALF vs vehicle-treated infected mice [1]: significantly decreased
numbers of white blood cells in the blood vs vehicle control (Male C57BL/6 Rj mice): not increased
CXCR4 structural activation/inactivation, Amax shift in fluorescence [2]: blue shift
IC50 [3]: ≤ 10 µM
anti-dsDNA Ab titers in serum vs vehicle-treated pristane-induced mice ([4]; 3 mg/kg i.p. once daily, week 4): reduced
anti-dsDNA Ab titers in serum vs vehicle-treated pristane-induced mice ([4]; 10 mg/kg i.p. once daily, week 4): reduced
anti-dsDNA Ab titers in serum vs vehicle-treated pristane-induced mice ([4]; 10 mg/kg i.p. once daily, week 8, same range as prednisolone): significantly decreased
anti-dsDNA Ab titers in serum vs vehicle-treated pristane-induced mice ([4]; 30 mg/kg i.p. once daily, week 4): reduced
anti-dsDNA Ab titers in serum vs vehicle-treated pristane-induced mice ([4]; 30 mg/kg i.p. once daily, week 6): significantly lower
anti-dsDNA Ab titers in serum vs vehicle-treated pristane-induced mice ([4]; 30 mg/kg i.p. once daily, week 8, same range as prednisolone): significantly decreased
irrelevant GPCR activation state, Amax shift in fluorescence [5]: Neither benchmark ligands SDF1α and AMD3100, nor Example 60 showed any effect
